Reference: patent US5371186A, “Synthetic peptides for detoxification of bacterial endotoxins and for the prevention and treatment of septic shock” (priority 1992, dated 1994)

Columns and labels:
[1] = survival of Balb/c mice after endotoxin challenge; assay type: in vivo, mice (Strain Balb/c); details: for % survival / Mice surviving: peptides 1 mg/mouse, Polymyxin B 0.1 mg/mouse i.v., 1 mg endotoxin i.p.; for Mice surviving: 20 mice per group
Experimental: Groups of 20 mice Balb/c have been treated intravenously with the peptides of the invention at the dose of 1 mg/mouse or with 0.1 mg/mouse of Polymyxin B (the highest dose of this drug tolerated in the mouse, when injected alone). Thirty minutes later, mice were challenged by intraperitoneal injection of 1 mg endotoxin from E.C strain 055-B5. Surviving mice were recorded every 24 hours during a seven days-period of observation. Negative controls received an intravenous injection of saline.
There were 20 mice per group. Mice surviving at each of the seven 24 hours observation periods are listed. The % survival appears in parenthesis. P expresses the level of statistical significance calculated by "t-Test" for each molecule compared to the treatment with saline, considering the total survival rate in each group.

[2] = Rabbit pyrogen test of peptide/LPS complexes; assay type: in vivo; details: rabbits, complex with LPS injected, three hours observation
Source text: As a consequence of this high-affinity binding to the Lipid A moiety of endotoxins, most of the synthetic peptide analogs have shown the ability to detoxify endotoxins as evidenced by in vitro as well as in vivo analysis. The in vitro test used, as measure of detoxification, the inhibition of the enzymatic cascade leading to the coagulation of the Lymulus lysate (LAL test) by endotoxin. The LAL test is recognized as the most sensitive and predictive test for the toxic and pyrogenic activity of LPS, since pyrogenicity in vivo is related to the release of the endogenous immune modulators Interleukin-1 (IL-l) and alfa-Tumor necrosis factor (α-TNF), the mediators responsible for the fatalities associated to septic shock. As an in vivo test confirming detoxification of LPS, was then used the Rabbit pyrogen test performed according to the United States Pharmacopeia XXI.
In order to verify "in vivo" the detoxifying activity of the peptides, we have injected five groups of three rabbits each with the complexes formed by two representative synthetic peptide analogs with LPS. The pyrogenicity test has been executed according to the United States Pharmacopeia (Vol. XXI)/The National formulary (Vol. XVI), Combined Edition, Jan. 1, 1985. As a negative control in the test, the complex formed by Polymyxin "B" and LPS was injected. As a positive control free LPS was injected. […]

Haemophilus influenzae = test: antibiotic activity, zone of inhibition on BHI plates; assay type: cell-based, H. influenzas; details: 18 hours
Experimental: (§1) The following experiments compared the antibiotic activity of Polymyxin "B" with various peptides of the invention.
(§2) The tests were performed on BHI plates with liquid cultures of the test organism to give a lawn. Each peptide was diluted in water and placed on sterile Wathmam 3M disks on the surface of the plate. The plates were dried and incubated at 37° C. The zone of inhibition was measured after 18 hours: […]

Vibrio cholerae = test: as above; assay type: cell-based, V. choleras; details: 18 hours
Experimental: as §1, §2

trypsin in human serum = test: stability towards proteolysis by trypsin in human serum; assay type: in vitro ADME
Experimental: The effects of trypsin present in human serum on Polymyxin "B" and the peptides of invention was determined by combining 10 μl of human serum with 20 μg of the given peptide in 10 μl volume and holding the mixture at a temperature of 37° C. for different intervals of time. At various times, an aliquot of the mixture was processed by HPLC analysis in order to detect the residual amount of the investigated peptide. In Table VI the half-lives time of each peptide investigated are shown as compared to the half-life time of Polymyxin "B".

[3] = highest dose tolerated in the mouse when injected alone; assay type: in vivo; details: intravenously
Salmonella Typhi = test: antibiotic activity, zone of inhibition on BHI plates; assay type: cell-based, S. typhi; details: 18 hours
Experimental: as §1, §2

[4] = stoichiometry of the complexes with LPS by amino acid analysis; assay type: binding; details: 10 μg B. Pertussis LPS (2.64 nmoles Lipid A) + 10 μg peptide
Experimental: Quantitation of the amount of precipitated peptides present in the complexes with PLS of B. pertussis has been done by amino acid analysis after acid hydrolysis (by 6 M HCl) of the complexes recovered by centrifugation at 3,000 rpm×15 minutes. In Table III, the stoichiometry of some complexes is reported as calculated by the ratio (on molar basis) between the amount of each peptide and the amount of Lipid A present in the structure of LPS used in the experiments:
*Complexes formed between 10 μg of B. Pertussis LPS (equivalent to 4.5
μg of Lipid A of 2.64 nmoles) and 10 μg of peptide (twice the amoun
corresponding to the saturation point found for Polymyxin "B" in the
**Values represent the average of two separate experiments of amino acid
analysis after acid hydrolysis of the recovered complexes.

[5] = same species of mice (Swiss Webster); cited from earlier work
[6] = direct competition with Polymyxin "B" (Affinity constant, Selectivity); assay type: binding, B. pertussis
Source text: To further characterize the binding activity of the synthetic peptides for Lipid A of endotoxin, experiments of direct competition with Polymyxin "B" have been set-up in order to evaluate the Affinity constant value of Polymyxin "B" for the toxic moiety of endotoxin and ultimately to calculate the Selectivity of the synthetic peptide analogs (ratio on molar basis, between the affinity constant value of a given peptide and that of Polymyxin "B" for Lipid A).

Substance: Polymyxin "B"
- % survival ([1]; 24 hs): 90%
- Mice surviving ([1]; 24 hs): 18
- % survival ([1]; 48 hs): 70%
- Mice surviving ([1]; 48 hs): 14
- % survival ([1]; 72 hs): 60%
- Mice surviving ([1]; 72 hs): 12
- % survival ([1]; 96 hs): 0%
- Mice surviving ([1]; 96 hs): 0
- % survival ([1]; 120 hs): 0%
- Mice surviving ([1]; 120 hs): 0
- % survival ([1]; 144 hs): 0%
- Mice surviving ([1]; 144 hs): 0
- % survival ([1]; 168 hs): 0%
- Mice surviving ([1]; 168 hs): 0
- safety and efficacy of treatment ([1]; Balb/c mice, 1 mg endotoxin challenge): resulted efficacious only within three days following the endotoxin challenge
- pyrogenicity (temperature increase) of complex with LPS [2]: did not show either of the two waves of temperature increase
- Zone (mm) of inhibition H. influenzas (Haemophilus influenzae; 0.008 μg/ml): 0 mm
- Zone (mm) of inhibition H. influenzas (Haemophilus influenzae; 0.04 μg/ml): 0 mm
- Zone (mm) of inhibition H. influenzas (Haemophilus influenzae; 0.2 μg/ml): 3 mm
- Zone (mm) of inhibition H. influenzas (Haemophilus influenzae; 1.0 μg/ml): 6 mm
- Zone (mm) of inhibition V. choleras (Vibrio cholerae; 0.008 μg/ml): 1 mm
- Zone (mm) of inhibition V. choleras (Vibrio cholerae; 0.04 μg/ml): 2 mm
- Zone (mm) of inhibition V. choleras (Vibrio cholerae; 0.2 μg/ml): 2.5 mm
- Zone (mm) of inhibition V. choleras (Vibrio cholerae; 1.0 μg/ml): 5 mm
- stability in the presence of proteolytic enzymes such as trypsin (trypsin in human serum): stable in the presence of trypsin
- Half-Life Time (t/2) (trypsin in human serum; human serum, 37° C.): > 3 h
- highest dose tolerated in the mouse [3]: 0.1 mg/mouse
- Zone (mm) of inhibition S. typhi (Salmonella Typhi; 0.008 μg/ml): 0 mm
- Zone (mm) of inhibition S. typhi (Salmonella Typhi; 0.04 μg/ml): 1 mm
- Zone (mm) of inhibition S. typhi (Salmonella Typhi; 0.2 μg/ml): 2 mm
- Zone (mm) of inhibition S. typhi (Salmonella Typhi; 1.0 μg/ml): 4 mm
- Ratio peptide/LipA [4]: 1.02 mol/mol
- Amount of peptide in the complex ([4]; average of two experiments): 2.69 nmol
- LD50 [5]: 2.5 to 5 mg/kg
- AFFINITY (Ka) ([6]; for Lipid A of LPSbp): 1.15e+07 L/mol
- SELECTIVITY (KaANA /KaPCP) ([6]; ratio of Ka of peptide to Ka of Polymyxin "B" for Lipid A): 1.0
